This note sets out measurements from paper PMC7045412, “Natural biased signaling of hydroxycarboxylic acid receptor 3 and G protein-coupled receptor 84” (Cell Communication and Signaling : CCS, 2020).

Test [1] deals with G protein-coupled receptor 84 (GPR84) (Homo sapiens, UniProt Q9NQS5). Briefly: cAMP inhibition, DMR and ERK assays in receptor-transfected CHO-K1/HEK293-T cells. The test is classed as cell-based.
Test [2] has as its target T1, hydroxycarboxylic acid receptor 3 (HCA3) (Homo sapiens, UniProt P49019).
T1 construct: gene HCAR3
The test can be described thus: DMR ([…]) in receptor-transfected CHO-K1 cells. The test is classed as cell-based.

G protein-coupled receptor 84 (GPR84), sequence (Q9NQS5 whole entry): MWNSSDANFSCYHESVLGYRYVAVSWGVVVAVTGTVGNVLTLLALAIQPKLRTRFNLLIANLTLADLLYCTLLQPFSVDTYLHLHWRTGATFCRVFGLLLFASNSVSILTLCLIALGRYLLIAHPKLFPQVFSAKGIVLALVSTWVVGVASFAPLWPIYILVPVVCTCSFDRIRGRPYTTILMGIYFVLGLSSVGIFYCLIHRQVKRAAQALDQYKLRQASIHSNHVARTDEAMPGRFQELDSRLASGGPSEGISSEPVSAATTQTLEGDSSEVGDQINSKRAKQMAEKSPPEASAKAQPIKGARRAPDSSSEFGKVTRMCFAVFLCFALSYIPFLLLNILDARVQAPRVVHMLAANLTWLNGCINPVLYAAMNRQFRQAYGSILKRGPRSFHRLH
T1 sequence (P49019 whole entry): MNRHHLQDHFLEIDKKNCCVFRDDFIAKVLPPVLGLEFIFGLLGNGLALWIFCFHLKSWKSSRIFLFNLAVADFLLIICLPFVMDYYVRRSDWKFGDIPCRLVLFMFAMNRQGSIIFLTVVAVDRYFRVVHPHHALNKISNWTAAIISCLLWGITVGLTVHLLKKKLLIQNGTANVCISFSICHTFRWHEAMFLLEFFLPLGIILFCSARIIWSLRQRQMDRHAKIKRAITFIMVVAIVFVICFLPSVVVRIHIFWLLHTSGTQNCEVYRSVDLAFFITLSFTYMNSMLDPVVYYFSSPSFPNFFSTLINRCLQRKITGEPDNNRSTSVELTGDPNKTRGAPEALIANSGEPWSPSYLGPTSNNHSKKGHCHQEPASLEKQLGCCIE

As for `CCCCCCCC(O)CC(=O)O` (stereo not drawn) [3HDec, 3-hydroxydecanoic acid], the EC50 result in test [1] is “In contrast, C10 and 3HDec but not 3HO activated GPR84”. Still for that read-out and setting: then `CCCCCCCCCC(=O)O` [C10, decanoic acid], with “C10 and 3HDec activated GPR84”. Consider `N[C@H](Cc1ccccc1)C(=O)O` [D-Phe, D-phenylalanine], for which, in test [2], the “DMR (250 μM) in receptor-transfected CHO-K1 cells” value is “dynasore affected the DMR-response of human and gorilla HCA3 to D-Phe and L-PLA in a similar manner”.
